Tests used:
[1] = tested on: HIF-1α activation of the HRE-driven reporter; assay: Dual luciferase reporter assay (HRE-driven luciferase activity); type: cell-based, Human; details: HEK293 cells; for HRE-driven luciferase activity, second round of screening: complexes 1a-1n, ranking and comparison in words; for HRE-driven luciferase activity (HIF-1α transcriptional activity), first round of screening: complexes 10 μM, complexes 1-14, ranking in words
Procedure: A library of cyclometalated Ir(III)/Rh(III) metal complexes 1-14 (as racemates) with diverse structures were selected for initial screening, in order to identify favorable substructures for the design of the next round of complexes (FIG. 1a). In cells, HIF-1α moves into the nucleus and binds to the hypoxia-response element (HRE) in the promoters of transactivated genes. In this study, the dual luciferase reporter assay (DLR) was performed to monitor the variations of HRE-driven luciferase activity induced by the complexes (FIG. 1f). Human embryonic kidney HEK293 cells were treated with complexes (10 μM) for 8 h, and the HRE-driven luciferase activity of the cell lysates was determined. Complexes that inhibit the interaction between VHL and HIF-1α would be expected to increase the level of HRE-driven luciferase activity in the cell lysates.
HEK293 cells were seeded in six well plates 24 h before transfection. HRE-luciferase plasmid (4 μg) and pRL-TK plasmid (4 μg) and TurboFect reagent (6 μL) were mixed together in serum-free DMEM medium and the resulting solution was incubated for 20 min at room temperature. The mixture was the added dropwise to the HEK293 cells in the wells. The cells were incubated for 32 h at 37° C. in a CO2 incubator before use.
The inhibition of HIF-1α activity was assayed by a reporter assay using a dual luciferase reporter assay system (Promega, Madison, WI, USA). Transiently transfected cells were treated with complexes or P1 for 8 h before measurement. Luciferase activity was integrated over a 10 second period and measured using a spectrophotometer (Spectra-max M5, Molecular Devices, USA). The results were standardization with the activity of Renilla luciferase. All data are expressed as means±SD.

[2] = target: T1, human recombinant VHL:ElonginB:ElonginC (VBC) complex (Homo sapiens, UniProt P40337); assay: Fluorescence-based protein thermal shift assay (FTS) of VBC; type: binding; details: 100 μM
T1 construct: made in house
Procedure: HEK293 cells were treated with vehicle DMSO (1% for 2 h), 1a (0.3, 1, 3, 6 and 9 μM for 2 h), VH298 (100 μM for 2 h), MG132 (20 μM for 3 h), or FG-4592 (100 μM for 2 h) before lysis. Cell lysates were collected and incubated with VHL antibody overnight at 4° C. The proteins were immunoprecipitated using agarose beads. The levels of hydroxy-HIF-1α co-precipitated with VHL were detected using a hydroxy-HIF-1α antibody, and then visualized using ECL Western Blotting Detection Reagent (GE Healthcare). (B) Cellular thermal shift assays to monitor cellular target engagement of VHL and HIF-1α. HEK293 cell lysates were treated with 1a (3 μM) at room temperature for 30 min and then heated at different temperature ranging from 48° C. to 68° C. for 5 min. The protein samples were collected and detected by Western blotting using either VHL or PHD2 antibodies. (C) Fluorescence-based protein thermal shift assay of VBC in the presence or absence of VH298 (100 μM) and complex 1a (100 μM). […] Data are expressed as means±SD (n=3 independent experiments for figures a and b, samples for figures c and e), P values were calculated using a two-sided t-test. *P<0.05, **P<0.01 vs. DMSO group.
After incubating HEK293 cell lysates with complex 1a followed by heating to set temperatures, VHL and PHD2 levels in the soluble fraction were quantitated by Western blotting.

[3] = tested on: HIF-1α levels in A498 (VHL-null) cells; assay: HIF-1α accumulation in VHL-null A498 cells; type: cell-based; details: 1a 3 μM, VH298 100 μM, 2 h
Procedure: FIG. 3 depicts the effect of complex 1a on HIF-1α target gene products in cellulo. (A) Effect of complex 1a on specific proteins (GLUT1, VEGF, and EPO) mediated by HIF-1α in HEK293 cells. HEK293 cells were treated with 1a for 2 h. Cell lysis were collected and analyzed by the Western blotting. (B) Complex 1a has no effect on HIF-1α accumulation in a VHL null cancer cell line. A498 (VHL-null), or HEK293 cells were treated with 1% DMSO, 1a (3 μM), VH298 (100 μM), and FG-4592 (100 μM) for 2 h before lysis. (C) Effect of complex 1a on EPO, GLUT1, and VEGF levels in HEK293 cells with or without HIF-1α knockdown. Left: The expression levels of EPO, GLUT1, and VEGF in HEK293 cells with or without knockdown HIF-1α in the presence or absence of 1a. Right: Densitometry analysis of EPO, GLUT1, and VEGF levels on the Western blot. HIF-1α siRNA [sense, 5′-[…]-3′ (SEQ ID NO:1), antisense, 5′-[…]-3′ (SEQ ID NO:2)]. Negative control (NC) siRNA [sense, 5′-[…]-3′ (SEQ ID NO:3), antisense, 5′-[…]-3′ (SEQ ID NO:4)]. Data are expressed as means±SD (n=3 independent experiments), P values were calculated using a two-sided t-test. #P<0.05, P<0.01 HIF-1α siRNA vs. NC siRNA, *P<0.05, **P<0.01 1a vs. vehicle/DMSO group, respectively. […]

VHL = VHL (Homo sapiens, UniProt P40337); assay: Binding affinity to VHL compared with VH298; details: VH298 vs complex 1a
VHL, sequence (P40337 whole entry): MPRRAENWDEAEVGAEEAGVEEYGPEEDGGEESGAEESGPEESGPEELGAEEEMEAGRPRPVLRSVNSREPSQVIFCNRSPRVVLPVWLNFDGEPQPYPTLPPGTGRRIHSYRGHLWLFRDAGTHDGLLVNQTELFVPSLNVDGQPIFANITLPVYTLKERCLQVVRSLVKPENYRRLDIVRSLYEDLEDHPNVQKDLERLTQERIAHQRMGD
VHL, sequence (Q15370 whole entry partner): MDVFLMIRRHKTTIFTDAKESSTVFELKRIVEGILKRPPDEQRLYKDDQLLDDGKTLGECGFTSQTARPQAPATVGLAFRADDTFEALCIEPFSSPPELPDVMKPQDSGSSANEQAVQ
VHL, sequence (Q15369 whole entry partner): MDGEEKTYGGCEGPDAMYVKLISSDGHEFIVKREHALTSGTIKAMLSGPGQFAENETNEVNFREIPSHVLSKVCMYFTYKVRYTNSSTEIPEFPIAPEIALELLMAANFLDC

T1 sequence (P40337 whole entry): as the sequence (P40337 whole entry) above
T1 sequence (Q15370 whole entry partner): as the sequence (Q15370 whole entry partner) above
T1 sequence (Q15369 whole entry partner): as the sequence (Q15369 whole entry partner) above

SMILES	HRE-driven luciferase activity, second round of screening ([1]; 8 h)	also measured
COc1cc[n+]2c3c1ccc1c(OC)cc[n+](c13)[Rh-3]213([c]2ccccc2-c2cccc[n+]21)[c]1ccccc1-c1cccc[n+]13.F[P-](F)(F)(F)(F)F [1b]	substantially more active than the Rh(III) congener 1b	–
COc1cc[n+]2c3c1ccc1c(OC)cc[n+](c13)[Ir-3]213([c]2cc(Br)ccc2-c2cccc[n+]21)[c]1cc(Br)ccc1-c1cccc[n+]13.F[P-](F)(F)(F)(F)F [1c]	drastically reduced activity	–
COc1cc[n+]2c3c1ccc1c(OC)cc[n+](c13)[Ir-3]213([c]2ccccc2-c2c(C)ccc[n+]21)[c]1ccccc1-c1c(C)ccc[n+]13.F[P-](F)(F)(F)(F)F [1e]	substantially weakens the activity of the complex	–
COc1cc[n+]2c3c1ccc1c(OC)cc[n+](c13)[Ir-3]213([c]2cc(C)ccc2-c2cccc[n+]21)[c]1cc(C)ccc1-c1cccc[n+]13.F[P-](F)(F)(F)(F)F [1g]	second-most potent compound	–
COc1cc[n+]2c(c1)-c1cc(OC)cc[n+]1[Ir-3]213([c]2cc(Br)ccc2-c2cccc[n+]21)[c]1cc(Br)ccc1-c1cccc[n+]13.F[P-](F)(F)(F)(F)F [1h]	led to a decrease in activity	–
Brc1ccc2[c](c1)[Rh-3]13([c]4cc(Br)ccc4-c4cccc[n+]41)([n+]1ccccc1-2)[n+]1cccc2ccc4ccc[n+]3c4c21.F[P-](F)(F)(F)(F)F [1i]	drastically reduced activity	–
Brc1ccc2[c](c1)[Ir-3]13([c]4cc(Br)ccc4-c4cccc[n+]41)([n+]1ccccc1-2)[n+]1cccc2ccc4ccc[n+]3c4c21.F[P-](F)(F)(F)(F)F [1j]	drastically reduced activity	–
Brc1ccc2[c](c1)[Rh-3]13([c]4cc(Br)ccc4-c4cccc[n+]41)([n+]1ccccc1-2)[n+]1ccc(Br)c2ccc4c(Br)cc[n+]3c4c21.F[P-](F)(F)(F)(F)F [1k]	drastically reduced activity	–
Brc1ccc2[c](c1)[Ir-3]13([c]4cc(Br)ccc4-c4cccc[n+]41)([n+]1ccccc1-2)[n+]1ccc(Br)c2ccc4c(Br)cc[n+]3c4c21.F[P-](F)(F)(F)(F)F [1l]	drastically reduced activity	–
Brc1ccc2[c](c1)[Rh-3]13([c]4cc(Br)ccc4-c4cccc[n+]41)([n+]1ccccc1-2)[n+]1ccc(-c2ccccc2)c2ccc4c(-c5ccccc5)cc[n+]3c4c21.F[P-](F)(F)(F)(F)F [1m]	drastically reduced activity	–
Brc1ccc2[c](c1)[Ir-3]13([c]4cc(Br)ccc4-c4cccc[n+]41)([n+]1ccccc1-2)[n+]1ccc(-c2ccccc2)c2ccc4c(-c5ccccc5)cc[n+]3c4c21.F[P-](F)(F)(F)(F)F [1n]	drastically reduced activity	–
Cc1ncsc1-c1ccc(CNC(=O)[C@@H]2C[C@@H](O)CN2C(=O)[C@@H](NC(=O)C2(C#N)CC2)C(C)(C)C)cc1 [VH298, reference compound]	–	Shift of the melting curve of purified VBC (FTS) [2]: ca. 5.0 °C; HIF-1α levels in A498 cells [3]: no increase in HIF-1α levels; Binding affinity to VHL, stronger than complex 1a (VHL): ca. 100 fold
Brc1ccc(-c2ccccn2)cc1 [brpy, 2-(4-bromophenyl)pyridine]	–	Effect of isolated ligands on HRE-driven luciferase activity [1]: neither brpy nor dmeophen had any significant effect
COc1cc[n+]2c3c1ccc1c(OC)cc[n+](c13)[Rh-3]213([c]2cc(Br)ccc2-c2cccc[n+]21)[c]1cc(Br)ccc1-c1cccc[n+]13.F[P-](F)(F)(F)(F)F [compound 1]	–	HRE-driven luciferase activity compared to positive control P1 (and parent complex 1) ([1]; 8 h): slightly higher activity compared to the positive control compound, P1; HRE-driven luciferase activity (HIF-1α transcriptional activity), first round of screening ([1]; 8 h): highest activation of HIF-1α transcriptional activity
CCc1ccc2[c](c1)[Rh-3]13([c]4cc(CC)ccc4-c4cccc[n+]41)([n+]1ccccc1-2)[n+]1ccc(-c2ccccc2)c2ccc4c(-c5ccccc5)cc[n+]3c4c21.F[P-](F)(F)(F)(F)F [compound 5]	–	HRE-driven luciferase activity (HIF-1α transcriptional activity), first round of screening ([1]; 8 h): next most potent candidate
CCc1ccc2[c](c1)[Rh-3]13([c]4cc(CC)ccc4-c4ccc5ccccc5[n+]41)([n+]1ccc(OC)cc1-c1cc(OC)cc[n+]13)[n+]1c-2ccc2ccccc21.F[P-](F)(F)(F)(F)F [compound 6]	–	HRE-driven luciferase activity (HIF-1α transcriptional activity), first round of screening ([1]; 8 h): low activity
COC(=O)c1cc[n+]2c(c1)-c1cc(C(=O)OC)cc[n+]1[Rh-3]213([c]2ccccc2-c2ccc4ccccc4[n+]21)[c]1ccccc1-c1ccc2ccccc2[n+]13.F[P-](F)(F)(F)(F)F [compound 7]	–	HRE-driven luciferase activity (HIF-1α transcriptional activity), first round of screening ([1]; 8 h): low activity
F[P-](F)(F)(F)(F)F.O=[N+]([O-])c1cc2ccc[n+]3c2c2c1ccc[n+]2[Ir-3]312([c]3cc(F)cc(F)c3-c3cccc[n+]31)[c]1cc(F)cc(F)c1-c1cccc[n+]12 [compound 9]	–	HRE-driven luciferase activity (HIF-1α transcriptional activity), first round of screening ([1]; 8 h): low activity
COc1ccnc2c1ccc1c(OC)ccnc12 [dmeophen, 4,7-dimethoxy-1,10-phenanthroline]	–	Effect of isolated ligands on HRE-driven luciferase activity [1]: neither brpy nor dmeophen had any significant effect
